From US20050004011A1, “Compositions and methods for treating bacterial infections with protein-dalbavancin complexes” (priority 2002, published 2005) come the findings set out here.

Structures are written as SMILES.

The nature of series [1]: Phase II SSTI trial: dalbavancin plasma concentrations. Format: in vivo, human. Particulars: for Mean dalbavancin plasma concentration: two-dose regimen.
Series [2] relates to Gram-positive isolates, including MRSA. Description: MIC against Gram-positive isolates / SSTI pathogens. Format: cell-based. Particulars: FU assessment.
Series [3] can be described thus: Pharmacokinetics and renal excretion in healthy subjects. Type of series: in vivo, human. The procedure: Blood samples were drawn into heparinized tubes and centrifuged. Plasma was separated and stored frozen at −20° C. until time of assay. Plasma and urine samples were assayed for dalbavancin using validated LC/MS/MS methods. […] The peak concentration (Cmax) values were obtained directly from the observed data. The area under the plasma concentration-time curve (AUC) was calculated using the linear trapezoidal rule. Clearance (CL) was computed as dose/AUC. The elimination half life (t1/2) was estimated by linear regression of the log-linear portion of the log concentration versus time curve. Estimates of the volume of distribution (Vz) was calculated using the regression parameters, while the volume of distribution at steady state (Vss) was calculated from the area under the first moment curve (AUMC) multiplied by the dose and divided by AUC. The cumulative amount of dalbavancin excreted in urine was determined as the integrand of the urine excretion rate (AURC). CLR, or renal clearance, was calculated as the ratio: CLR=AURC/AUC.

The nature of series [4]: Stability of dalbavancin in plasma. Type of series: in vitro ADME, human.
Method: A quality control standard of 1.5 μg/ml was prepared by spiking human plasma with an appropriate volume of a 50 μg/ml solution.
The target of another series is HSA (Homo sapiens, UniProt P02768). Description: MALDI-TOF mass spectrometry of protein-dalbavancin complexes. Type of series: binding. Particulars: very high dalbavancin:protein ratios (1:2, 1:10). The procedure:
The samples were prepared for analysis using the dried droplet technique. Spectra were obtained on a BRUKER FLEX III, tof mass spectrometer previously tuned and calibrated using standard bovine serum albumin, acquiring and averaging spectra generated by 200 laser shots. Matrix: 9 parts of DHB-9 (2,5-dihydroxy-benzoic acid) saturated in acetonitrile/H2O (50:50), 1 part of sinapinic acid saturated in acetonitrile/H2O (50:50). 0.5 μl of sample solution and 0.5 μl of matrix solution were mixed and placed on the laser target. [00179]

Sequence of HSA (P02768 25-609): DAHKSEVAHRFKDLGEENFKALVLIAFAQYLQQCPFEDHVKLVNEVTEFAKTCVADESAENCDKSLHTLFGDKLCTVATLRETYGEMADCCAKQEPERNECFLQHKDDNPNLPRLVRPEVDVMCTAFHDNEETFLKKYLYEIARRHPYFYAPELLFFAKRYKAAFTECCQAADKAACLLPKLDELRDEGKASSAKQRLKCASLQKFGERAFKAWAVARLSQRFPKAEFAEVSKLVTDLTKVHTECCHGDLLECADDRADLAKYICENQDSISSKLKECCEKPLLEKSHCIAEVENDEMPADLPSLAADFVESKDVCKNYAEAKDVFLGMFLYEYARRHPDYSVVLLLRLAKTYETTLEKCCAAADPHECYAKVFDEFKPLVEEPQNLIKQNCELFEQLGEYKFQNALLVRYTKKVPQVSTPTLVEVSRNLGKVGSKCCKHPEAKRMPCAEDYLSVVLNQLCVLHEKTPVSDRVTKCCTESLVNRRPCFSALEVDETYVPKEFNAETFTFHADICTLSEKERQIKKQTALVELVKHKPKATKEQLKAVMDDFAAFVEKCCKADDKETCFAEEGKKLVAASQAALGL

Turning to `CN[C@H]1C(=O)N[C@@H]2Cc3ccc(cc3)Oc3cc4cc(c3O[C@@H]3O[C@H](C(=O)O)[C@@H](O)[C@H](O)[C@H]3NC(=O)CCCCCCCCC(C)C)Oc3ccc(cc3Cl)[C@@H](O)[C@@H]3NC(=O)[C@H](NC(=O)[C@@H]4NC(=O)[C@@H](NC2=O)c2cc(cc(O)c2Cl)Oc2cc1ccc2O)c1ccc(O)c(c1)-c1c(O[C@H]2O[C@H](CO)[C@@H](O)[C@H](O)[C@@H]2O)cc(O)cc1[C@@H](C(=O)NCCCN(C)C)NC3=O` [Dalbavancin], the “Mean dalbavancin plasma concentration (mean±SD)” value in series [1] (single-dose regimen, Study day 10) came out at 25.2 ± 4.8 mg/L. The “Mean dalbavancin plasma concentration” value is 30.4 ± 8.2 mg/L in series [1] (Study day 8 (prior to the second dose)), 21.2 ± 10.0 mg/L in series [1] (Study day 20) and 9.0 ± 4.4 mg/L in series [1] (Study day 34). Besides, the “Change in dalbavancin MIC of isolates that persisted” value in series [2] was “no change”. In addition, the “peak concentration in man” value in series [3] (human, in vivo) is approximately 165 µM. Besides, in series [3] (single 1000 mg IV, mean), the CLR is reported as 0.018 L/h. Also, the VZ in series [3] (single 1000 mg IV, mean) is recorded as 16.0 L. In series [3] (single intravenous infusion of 1000 mg), the “plasma concentration maintained for at least seven days” value is reported as “above 45 mg/l”. For the same compound, the “Stability in processed plasma samples” value in series [4] (24 hours at room temperature) is “stable”. In series [4] (three cycles of freeze-thaw, 1.5 and 90 μg/ml), the “Stability in human plasma, detectable concentration” value is on record as “stable”. The “complex with HSA observed by MALDI-TOF” value on HSA is 2 molecules of dalbavancin per protein molecule.
